Reference: patent US9884874B2, “Bromodomain-inhibiting compounds and pharmaceutical composition comprising same for preventing or treating a cancer” (KAINOS MEDICINE, INC., priority 2014, dated 2018)

Experiments:
human BRD4 bromodomain 1 = human BRD4 bromodomain 1 (Homo sapiens (Human), UniProt O60885); test: Bromodomain binding assay (BRD4 Alpha-screen); conditions: acetylated histone H4 peptide
Protocol: Bromodomain binding assays were carried out in Reaction Biology (PA, USA) to test the degrees of the inventive compounds in inhibiting the human BRD4 bromodomain 1 by Alpha-screen assay method.
Recombinant human BRD4 bromodomain 1 expressed in E. coli with N-terminal His-tag was used as the enzyme target.
A synthetic peptide ([…]-GSGSK-biotin) containing 1 to 21th amino acids of histone H4 acetylated at lysine 5, 8, 12 and 16 and conjugated to biotin was purchased from Millipore.
BRD4-1 (44 to 170th amino acids; Genbank Accession # NM_058243) was expressed in E. coli with N-terminal His-tag (see, Ni-NTA spin Kit Handbook (Qiagen), second edition, January, 2008). Nickel-Chelate ALPHA acceptor beads (Perkin Elmer) were used to specifically bind BRD4-1, and ALPHA streptavidin donor beads (Perkin Elmer) were used because they specifically recognized the biotinylated H4 peptide.
BRD binding assays were performed in a mixture comprising 50 mM Hepes (pH7.5), 100 mM NaCl, 0.05% CHAPS, 0.1% BSA, and 1% DMSO. After an assay reaction time of 60 min at 25° C., binding was measured with streptavidin donor beads and nickel-chelate acceptor beads. ALPHA signal was detected on Enspire (Ex/Em=680/520-620 nm). IC50 values were calculated from the fit of the dose-response curves. All IC50 values represent geometric mean values of a minimum of four determinations. These assays generally produced results within 3-fold of the reported mean.

[1] = Human liver microsomal stability/clearance; format: in vitro ADME
Protocol: (§1) Human and mouse liver microsomal clearance assays were carried out in CROWN Biosciences (Taicang, China). The human liver microsomes (Cat No. X008067, Lot No. KQB) and mouse liver microsomes (Cat No. M1000, Lot No. 1210302) were purchased from Celsis and Xenotech, respectively.
(§2) 5 μL of test compound stock solution was diluted with 495 μL of 1:1 Methanol/Water (final concentration: 100 μM, 50% MeOH) and combined with 534 μL of the respective liver microsome solution (final concentration: 1.111 μM, 0.555% MeOH). The final concentration of the liver microsome solution was 0.7 mg protein/mL.
(§3) Incubations of the liver microsome solutions were performed in a 96 well plate at 37° C. 90 μL of the liver microsome solutions were added to Blank, and 90 μL of working solution of the test compound was added to all plates except the Blank.
(§4) All plates thus obtained were warmed in water bath at 37° C. for 10 min, and 10 μL of NADPH co-factor solution comprising 42 mg of β-nicotinamide adenine dinucleotide phosphate (Sigma Cat. No. N0505 Lot 020M7009V), 84 mg of isocitric acid (Sigma Cat. No. 11252 Lot 119K1099) and 0.478 mL of isocitric dehydrogenase (Sigma Cat. No. 12002 Lot 086K7055, 15 units/mg protein, warmed in water bath at 37° C. for 5 min was added to the plates. The resulting plates were incubated at 37° C. in the following order: T60 (The test compounds were incubated with the liver microsomal solution and NADPH for 60 min at 37° C.), T30 (such as for 30 min.), and T10 (such as for 10 min.). 300 μL of a cold (4° C.) stop solution (acetonitrile (ACN) including 500 nM of tolbutamide as internal standard) and 10 μL of NADPH co-factor solution to starting plate (T0: 100% of the parent compound without any reaction) were added to the plates. The reaction was stopped by adding 300 μL of the cold (4° C.) stop solution to the other plates in the following order: T10 first, then T30 and T60.
(§5) The samples were centrifuged at 4,000 rpm for 20 min and transferred to Bioanalytical Services for liquid chromatography-mass spectrometry (LC-MS)/MS (Waters UPLC/API 4000, 10 μL injection) analysis.

[2] = system: MV4-11 (human leukemia cell line); test: Anti-proliferative activity test (CellTiter-Glo), MV4-11; format: cell-based; conditions: second value of LnCAP/MV4-11 cell, read-out: Cell proliferation IC50 (MV4-11)
Protocol: (§6) IC50 (uM) of the compounds obtained in Examples 1 to 18 against hematological cancer cells and solid tumors was measured for identifying anti-proliferative activities.
(§7) A human prostatic adenocarcinoma cell line, LnCAP (ATCC®, CRL-1740) and human leukemia cell line MV4-11 (ATCC®, CRL-9591) were used to test the degrees of the compounds 1 to 18 in inhibiting the cancer cell growth. The testing cell concentration was adjusted to 6.7×10^3 cells/ml with a culture medium supplemented with 10% FBS, in the temperature of 37° C., 5% CO2 and 95% humidity. Culture media and FBS were purchased from GIBCO. 90 μL of cell suspensions thus obtained was added to two 96-well plates with the final cell density of 600 cells/well, followed by addition of 10 μL of culture medium to each well of plate. The plates were incubated overnight in a humidified incubator at 37° C. with 5% CO2.
(§8) Compounds 1 to 18 were each dissolved with dimethylsulfoxide (DMSO) or phosphate buffer solution (PBS) as a stock solution, and 200× solutions of test compound (2 mM) using DMSO were prepared. Then, the DMSO solution thus obtained was diluted 20-fold with culture medium or PBS to obtain 10× working solution. 10 μL of 10× working solution (drug solution) was dispensed to each well (triplicate for each concentration). The final concentration of DMSO in culture medium was 0.5% [v/v].
(§9) Cell viability was determined using CellTiter-Glo® (CTG) assay. 100 μL of CellTiter-Glo® was added to the equal volume of the cultured cells to read luminescence in EnVision Multi Label Reader.

[3] = Mouse liver microsomal stability/clearance; format: in vitro ADME
Protocol: as §1, §2, §3, §4, §5

[4] = system: LnCAP (human prostatic adenocarcinoma cell line); test: Anti-proliferative activity test (CellTiter-Glo), LnCAP; format: cell-based; conditions: first value of LnCAP/MV4-11 cell, read-out: Cell proliferation IC50 (LnCAP)
Protocol: as §6, §7, §8, §9

[5] = human liver microsomes, first value of Human/Mouse cell, read-out: Liver microsomal clearance (Human)
[6] = mouse liver microsomes, second value of Human/Mouse cell, read-out: Liver microsomal clearance (Mouse)

SMILES | IC50 (human BRD4 bromodomain 1) | microsomal CLint at 1 µM [1, 5] | IC50 [2] | microsomal CLint at 1 µM [3, 6] | IC50 [4] | microsomal CLint at 1 µM ([1]; human, microsomes) | microsomal CLint at 1 µM ([3]; mouse, microsomes)
CCCS(=O)(=O)OC[C@@H]1N=C(c2ccc(Cl)cc2)c2cc(OC)ccc2-n2c(C)nnc21 [Compound 3, (R)-(6-(4-chlorophenyl)-8-methoxy-1-methyl-4H-benzo[f][1,2,4]triazolo[4,3-a][1,4]diazepin-4-yl)methyl propane-1-sulfonate] | 390 nM | 71.3 µL/min/mg | 1810 nM | 39.7 µL/min/mg | 830 nM |  | 
COc1ccc2c(c1)C(c1ccc(Cl)cc1)=N[C@@H](COS(=O)(=O)C1CC1)c1nnc(C)n1-2 [Compound 4, (R)-(6-(4-chlorophenyl)-8-methoxy-1-methyl-4H-benzo[f][1,2,4]triazolo[4,3-a][1,4]diazepin-4-yl)methyl cyclopropanesulfonate] | 420 nM | 6.3 µL/min/mg | 690 nM | 8.9 µL/min/mg | 130 nM |  | 
COc1ccc2c(c1)C(c1ccc(Cl)cc1)=N[C@@H](COS(=O)(=O)c1ccccc1)c1nnc(C)n1-2 [Compound 5, (R)-(6-(4-chlorophenyl)-8-methoxy-1-methyl-4H-benzo[f][1,2,4]triazolo[4,3-a][1,4]diazepin-4-yl)methyl benzenesulfonate] | 900 nM |  |  |  |  |  | 
Cc1nnc2n1-c1ccccc1C(c1ccc(Cl)cc1)=N[C@H]2COS(C)(=O)=O [Compound 6, (R)-(6-(4-chlorophenyl)-1-methyl-4H-benzo[f][1,2,4]triazolo[4,3-a][1,4]diazepin-4-yl)methyl methanesulfonate] | 1410 nM |  |  |  |  |  | 
COc1ccc2c(c1)C(c1ccc(Cl)cc1)=N[C@@H](COS(=O)(=O)N(C)C)c1nnc(C)n1-2 [Compound 9, (R)-(6-(4-chlorophenyl)-8-methoxy-1-methyl-4H-benzo[f][1,2,4]triazolo[4,3-a][1,4]diazepin-4-yl)methyl dimethylsulfamate] | 280 nM | 126 µL/min/mg | 1490 nM | 86 µL/min/mg | 1900 nM |  | 
CNS(=O)(=O)OC[C@@H]1N=C(c2ccc(Cl)cc2)c2cc(OC)ccc2-n2c(C)nnc21 [Compound 10, (R)-(6-(4-chlorophenyl)-8-methoxy-1-methyl-4H-benzo[f][1,2,4]triazolo[4,3-a][1,4]diazepin-4-yl)methyl methylsulfamate] | 400 nM | 29 µL/min/mg | 350 nM | 21 µL/min/mg | 570 nM |  | 
Cc1nnc2n1-c1ccc(-c3cnn(CC(N)=O)c3)cc1C(c1ccc(Cl)cc1)=N[C@H]2COS(C)(=O)=O [Compound 12, (R)-(8-(1-(2-amino-2-oxoethyl)-1H-pyrazol-4-yl)-6-(4-chlorophenyl)-1-methyl-4H-benzo[f][1,2,4]triazolo[4,3-a][1,4]diazepin-4-yl)methyl methanesulfonate] | 110 nM | 5.6 µL/min/mg | 1070 nM | 6.9 µL/min/mg | 44000 nM |  | 
Cc1nnc2n1-c1ccc(-c3cnn(CC(=O)N(C)C)c3)cc1C(c1ccc(Cl)cc1)=N[C@H]2COS(C)(=O)=O [Compound 13, (R)-(6-(4-chlorophenyl)-8-(1-(2-(dimethylamino)-2-oxoethyl)-1H-pyrazol-4-yl)-1-methyl-4H-benzo[f][1,2,4]triazolo[4,3-a][1,4]diazepin-4-yl)methyl methanesulfonate] | 110 nM | 12.3 µL/min/mg | 290 nM | 7.4 µL/min/mg | 430 nM |  | 
Cc1nnc2n1-c1ccc(C(=O)NCCO)cc1C(c1ccc(Cl)cc1)=N[C@H]2COS(C)(=O)=O [Compound 14, (R)-(6-(4-chlorophenyl)-8-((2-hydroxyethyl)carbamoyl)-1-methyl-4H-benzo[f][1,2,4]triazolo[4,3-a][1,4]diazepin-4-yl)methyl methanesulfonate] | 380 nM | 8.3 µL/min/mg |  | 6.3 µL/min/mg |  |  | 
Cc1sc2c(c1C)C(c1ccc(Cl)cc1)=N[C@@H](COS(N)(=O)=O)c1nnc(C)n1-2 [Compound 16, (R)-(4-(4-chlorophenyl)-2,3,9-trimethyl-6H-thieno[3,2-f][1,2,4]triazolo[4,3-a][1,4]diazepin-6-yl)methyl sulfamate] | 250 nM |  |  |  |  | 10 µL/min/mg | 9 µL/min/mg
Cc1sc2c(c1C)C(c1ccc(Cl)cc1)=N[C@@H](COS(=O)(=O)N(C)C)c1nnc(C)n1-2 [Compound 17, (R)-(4-(4-chlorophenyl)-2,3,9-trimethyl-6H-thieno[3,2-f][1,2,4]triazolo[4,3-a][1,4]diazepin-6-yl)methyl dimethylsulfamate] | 900 nM |  |  |  |  | 171 µL/min/mg | 138 µL/min/mg
CNS(=O)(=O)OC[C@@H]1N=C(c2ccc(Cl)cc2)c2c(sc(C)c2C)-n2c(C)nnc21 [Compound 18, (R)-(4-(4-chlorophenyl)-2,3,9-trimethyl-6H-thieno[3,2-f][1,2,4]triazolo[4,3-a][1,4]diazepin-6-yl)methyl methylsulfamate] | 160 nM |  |  |  |  | 51 µL/min/mg | 49 µL/min/mg
